Reference: US7754654B2, “Substituted spirocyclic ketoenols” (Bayer CropScience AG, priority 2002, dated 2010)
“And” between values parts separate entries of the source, which are not always exact repeats. Equal values may be shown once.

Columns and labels:
Type in all cases: in vivo
[1] = system: larvae of the mustard beetle (Phaedon cochleariae); test: Phaedon larvae test (cabbage leaf dip); details: 1000 ppm
Description: (§1) To produce a suitable preparation of active compound, 1 part by weight of active compound is mixed with the stated amounts of solvent and emulsifier, and the concentrate is diluted with emulsifier-containing water to the desired concentration. Cabbage leaves (Brassica oleracea) are treated by being dipped into the preparation of active compound of the desired concentration and are populated with larvae of the mustard beetle (Phaedon cochleariae) while the leaves are still moist. After the desired period of time, the kill in % is determined. 100% means that all beetle larvae have been killed; 0% means that none of the beetle larvae have been killed.

[2] = system: peach aphid (Myzus persicae); test: Myzus test (cabbage leaf dip)
Description: as §1, with “oleracea) which are heavily infested by the peach aphid (Myzus persicae)” for “oleracea)”, “concentration.” for “concentration and are populated with larvae of the mustard beetle (Phaedon cochleariae) while the leaves are still moist.”, “aphids” for “beetle larvae”

[3] = system: greenhouse red spider mite (Tetranychus urticae); test: Tetranychus test (OP-resistant/dip treatment); details: 100 ppm; bean plants dipped
Description: To produce a suitable preparation of active compound, 1 part by weight of active compound is mixed with the stated amounts of solvent and emulsifier, and the concentrate is diluted with emulsifier-containing water to the desired concentration. Bean plants (Phaseolus vulgaris) which are heavily infested by all stages of the greenhouse red spider mite (Tetranychus urticae) are dipped into a preparation of active compound of the desired concentration. After the desired period of time, the effect in % is determined. 100% means that all spider mites have been killed; 0% means that none of the spider mites have been killed.

[4] = system: caterpillars of the army worm (Spodoptera frugiperda); test: Spodoptera frugiperda test (cabbage leaf dip)
Description: as §1, with “caterpillars” for “larvae”, “army worm (Spodoptera frugiperda)” for “mustard beetle (Phaedon cochleariae)”, “caterpillars” for “beetle larvae”

Setaria [5] = test: Pre-emergence test; details: after three weeks
Description: (§2) To produce a suitable preparation of active compound, 1 part by weight of active compound is mixed with the stated amount of solvent, the stated amount of emulsifier is added and the concentrate is diluted with water to the desired concentration. Seeds of the test plants are sown in normal soil. After about 24 hours, the soil is sprayed with the preparation of active compound such that the particular amounts of active compound desired are applied per unit area. The concentration of the spray liquor is chosen such that the particular amounts of active compound desired are applied in 1000 l of water/ha. After three weeks, the degree of damage to the plants is rated in % damage in comparison to the development of the untreated control. The figures denote: • 0%=no effect (like untreated control) • 100%=total destruction

Alopecurus [6] = test: Pre-emergence test; details: after three weeks
Description: as §2

Amaranthus [7] = test: Pre-emergence test; details: after three weeks
Description: as §2

Setaria [8] = test: Post-emergence test; details: 250 g of ai/ha, after three weeks
Description: as §2, with “Test plants” for “Seeds”, “a height of 5-15 cm” for “the test plants”, “are” for “are sown in normal soil. After about 24 hours, the soil is”

Alopecurus [9] = test: Post-emergence test; details: 250 g of ai/ha, after three weeks
Description: as §2, with “Test plants” for “Seeds”, “a height of 5-15 cm” for “the test plants”, “are” for “are sown in normal soil. After about 24 hours, the soil is”

Amaranthus [10] = test: Post-emergence test; details: 250 g of ai/ha, after three weeks
Description: as §2, with “Test plants” for “Seeds”, “a height of 5-15 cm” for “the test plants”, “are” for “are sown in normal soil. After about 24 hours, the soil is”

Sinapis [11] = test: Post-emergence test; details: 250 g of ai/ha, after three weeks
Description: as §2, with “Test plants” for “Seeds”, “a height of 5-15 cm” for “the test plants”, “are” for “are sown in normal soil. After about 24 hours, the soil is”

Sugar beet = test: Post-emergence test; details: 250 g of ai/ha, after three weeks
Description: as §2, with “Test plants” for “Seeds”, “a height of 5-15 cm” for “the test plants”, “are” for “are sown in normal soil. After about 24 hours, the soil is”

Echinochloa = test: Pre-emergence test; details: 2000 g of ai/ha, after three weeks
Description: as §2

Sinapis [12] = test: Pre-emergence test; details: after three weeks
Description: as §2

Meloidogyne incognita = test: Meloidogyne test (gall formation on lettuce roots); details: 20 ppm; nematicidal action by gall formation, 100% = no galls
Description: To produce a suitable preparation of active compound, 1 part by weight of active compound is mixed with the stated amounts of solvent and emulsifier, and the concentrate is diluted with water to the desired concentration. Containers are filled with sand, solution of active compound, Meloidogyne incognita egg/larvae suspension and lettuce seeds. The lettuce seeds germinate and the plants develop. On the roots, galls are formed. After the desired period of time, the nematicidal action is determined in % by the gall formation. 100% means that no galls have been found; 0% means that the number of galls on the treated plants corresponds to that of the untreated control.

Eriochloa = test: Pre-emergence test; details: 125 g of ai/ha, after three weeks
Description: as §2

Lolium = test: Pre-emergence test; details: 125 g of ai/ha, after three weeks
Description: as §2

Maize = test: Pre-emergence test; details: 125 g of ai/ha, after three weeks
Description: as §2

Ipomoea = test: Pre-emergence test; details: 125 g of ai/ha, after three weeks
Description: as §2

Digitaria = test: Pre-emergence test; details: 125 g of ai/ha, after three weeks
Description: as §2

Avena fatua [13] = test: Post-emergence test; details: 250 g of ai/ha, after three weeks
Description: as §2, with “Test plants” for “Seeds”, “a height of 5-15 cm” for “the test plants”, “are” for “are sown in normal soil. After about 24 hours, the soil is”

Abutilon = test: Post-emergence test; details: 250 g of ai/ha, after three weeks
Description: as §2, with “Test plants” for “Seeds”, “a height of 5-15 cm” for “the test plants”, “are” for “are sown in normal soil. After about 24 hours, the soil is”

Botrytis cinerea = test: Botrytis test (bean)/protective; details: 500 g/ha, protective, 2 days after inoculation
Description: To produce a suitable preparation of active compound, 1 part by weight of active compound is mixed with the stated amounts of solvent and emulsifier, and the concentrate is diluted with water to the desired concentration. To test for protective activity, young plants are sprayed with the preparation of active compound at the stated application rate. After the spray coating has dried on, 2 small pieces of agar colonized by Botrytis cinerea are placed onto each leaf. The inoculated plants are placed in a dark chamber at about 20° C. and 100% relative atmospheric humidity. 2 days after the inoculation, the size of the infested areas of the leaves is evaluated. 0% means an efficacy which corresponds to that of the control, whereas an efficacy of 100% means that no infection is observed.

Avena fatua [14] = test: Pre-emergence test; details: 125 g of ai/ha, after three weeks
Description: as §2

[15] = system: larva (L3) of the army worm (Spodoptera frugiperda); test: Spodoptera frugiperda test/synthetic feed; details: 1000 ppm; synthetic feed
Description: To produce a suitable preparation of active compound, 1 part by weight of active compound is mixed with the stated amounts of solvent and emulsifier, and the concentrate is diluted with emulsifier-containing water to the desired concentration. A stated amount of the preparation of active compound of the desired concentration is pipetted onto a standardized amount of synthetic feed. In 6 replications, in each case one larva (L3) of the army worm (Spodoptera frugiperda) is placed onto the feed. After the desired period of time, the kill in % is determined. 100% means that all animals have been killed; 0% means that none of the animals have been killed.

SMILES: Cc1cc(C)c(C2=C(O)C3(CCC(OCCOC(C)C)CC3)NC2=O)c(C)c1C (single isomer, unassigned) [Ex. I-1-a-2]
- Kill rate in % after 7d [1]: 100%
- Kill rate in % after 6d ([2]; 1000 ppm): 100%
- Kill rate in % after 7d [3]: 95%

SMILES: COCCOC1CCC2(CC1)NC(=O)C(c1c(C)cc(C)c(C)c1C)=C2O (single isomer, unassigned) [Ex. I-1-a-3]
- Kill rate in % after 7d [1]: 100%
- Kill rate in % after 7d [3]: 98%

SMILES: COCCOC1CCC2(CC1)NC(=O)C(c1c(C)cc(C)cc1C)=C2O (single isomer, unassigned) [Ex. I-1-a-4]
- Kill rate in % after 6d ([2]; 1000 ppm): 90%
- Kill rate in % after 7d ([4]; 1000 ppm): 100%
- % damage (Setaria [5]; 250 g of ai/ha): 100%
- % damage (Alopecurus [6]; 250 g of ai/ha): 80%
- % damage (Amaranthus [7]; 250 g of ai/ha): 95%

SMILES: COCCOC1CCC2(CC1)NC(=O)C(c1cc(C)ccc1C)=C2O (single isomer, unassigned) [Ex. I-1-a-5]
- Kill rate in % after 6d ([2]; 1000 ppm): 98%
- Kill rate in % after 7d ([4]; 1000 ppm): 100%

SMILES: Cc1cc(C)c(C2=C(O)C3(CCC(OCC4CCCO4)CC3)NC2=O)c(C)c1C (single isomer, unassigned) [Ex. I-1-a-6]
- Kill rate in % after 7d [1]: 100%

SMILES: Cc1cc(C)c(C2=C(O)C3(CCC(OCC4CCCO4)CC3)NC2=O)cc1C (single isomer, unassigned) [Ex. I-1-a-8]
- Kill rate in % after 7d ([4]; 1000 ppm): 100%

SMILES: Cc1ccc(C)c(C2=C(O)C3(CCC(OCC4CCCO4)CC3)NC2=O)c1 (single isomer, unassigned) [Ex. I-1-a-9]
- Kill rate in % after 7d [1]: 100%

SMILES: Cc1cc(Cl)cc(C)c1C1=C(O)C2(CCC(OCC3CCCO3)CC2)NC1=O (single isomer, unassigned) [Ex. I-1-a-10]
- Kill rate in % after 7d [1]: 100%
- % damage (Setaria [8]): 95%
- % damage (Alopecurus [9]): 70%
- % damage (Amaranthus [10]): 90%
- % damage (Sinapis [11]): 80%
- % damage (Sugar beet): 0%

SMILES: C=CCOC1CCC2(CC1)NC(=O)C(c1c(C)cc(Cl)cc1C)=C2O (single isomer, unassigned) [Ex. I-1-a-11]
- Kill rate in % after 7d ([4]; 500 ppm): 100%
- % damage (Echinochloa): 100%
- % damage (Sinapis [12]; 2000 g of ai/ha): 90%
- Kill rate in % after 7d [3]: 95%

SMILES: C=CCOC1CCC2(CC1)NC(=O)C(c1c(C)cc(Cl)cc1Cl)=C2O (single isomer, unassigned) [Ex. I-1-a-12]
- Kill rate in % after 7d ([4]; 500 ppm): 100%
- % damage (Amaranthus [7]; 2000 g of ai/ha): 90%

SMILES: C=CCOC1CCC2(CC1)NC(=O)C(c1c(C)cc(Cl)cc1Cl)=C2O (single isomer, unassigned) [Ex. I-1-a-13]
- % damage (Alopecurus [6]; 2000 g of ai/ha): 95% and 90%

SMILES: Cc1cc(C)c(C2=C(O)C3(CCC(OCc4ccccc4Cl)CC3)NC2=O)cc1C (single isomer, unassigned) [Ex. I-1-a-20]
- Kill rate in % after 7d [1]: 100%

SMILES: Cc1ccc(C)c(C2=C(O)C3(CCC(OCc4ccccc4Cl)CC3)NC2=O)c1 (single isomer, unassigned) [Ex. I-1-a-21]
- Kill rate in % after 7d [1]: 100%

SMILES: Cc1cc(C)c(C2=C(O)C3(CCC(OCc4cccc(Cl)c4)CC3)NC2=O)c(C)c1C (single isomer, unassigned) [Ex. I-1-a-22]
- Kill rate in % after 7d [1]: 100%
- Effect in % after 14d (Meloidogyne incognita): 98%

SMILES: Cc1cc(C)c(C2=C(O)C3(CCC(OCc4cccc(Cl)c4)CC3)NC2=O)c(C)c1 (single isomer, unassigned) [Ex. I-1-a-23]
- % damage (Setaria [5]; 125 g of ai/ha): 95%
- % damage (Eriochloa): 99%
- % damage (Lolium): 80%
- % damage (Maize): 0%
- % damage (Ipomoea): 80%
- % damage (Digitaria): 100%
- % damage (Setaria [8]): 95%
- % damage (Avena fatua [13]): 80%
- % damage (Amaranthus [10]): 90%
- % damage (Sinapis [11]): 90%
- % damage (Abutilon): 80%
- % damage (Sugar beet): 0%

SMILES: Cc1ccc(C)c(C2=C(O)C3(CCC(OCc4cccc(Cl)c4)CC3)NC2=O)c1 (single isomer, unassigned) [Ex. I-1-a-25]
- Kill rate in % after 7d [1]: 100%

SMILES: Cc1cc(C)c(C2=C(O)C3(CCC(OCc4ccc(Cl)cc4)CC3)NC2=O)c(C)c1C (single isomer, unassigned) [Ex. I-1-a-26]
- Kill rate in % after 7d [1]: 100%
- Effect in % after 14d (Meloidogyne incognita): 100%

SMILES: Cc1ccc(-c2ccc(Cl)cc2)cc1C1=C(O)C2(CCC(OCc3ccc(Cl)cc3)CC2)NC1=O (single isomer, unassigned) [Ex. I-1-a-30]
- % efficacy (Botrytis cinerea): 100%
- Kill rate in % after 6d ([2]; 500 ppm): 100%
- Kill rate in % after 7d [3]: 99%

SMILES: O=C1NC2(CCC(OCc3ccc(Cl)cc3)CC2)C(O)=C1c1cc(-c2ccc(Cl)cc2)ccc1Cl (single isomer, unassigned) [Ex. I-1-a-31]
- Kill rate in % after 7d ([4]; 500 ppm): 100%
- Effect in % after 14d (Meloidogyne incognita): 95%
- Kill rate in % after 7d [3]: 99%

SMILES: C=CCOC1CCC2(CC1)NC(=O)C(c1c(C)cc(Cl)cc1C)=C2OC(=O)OCC (single isomer, unassigned) [Ex. I-1-c-2]
- Kill rate in % after 6d ([2]; 500 ppm): 95%
- Effect in % after 14d (Meloidogyne incognita): 100%

SMILES: CCOC(=O)OC1=C(c2c(C)cc(C)cc2C)C(=O)NC12CCC(OCc1ccccc1)CC2 (single isomer, unassigned) [Ex. I-1-c-3]
- % damage (Setaria [5]; 125 g of ai/ha): 100%
- % damage (Alopecurus [6]; 125 g of ai/ha): 90%
- % damage (Avena fatua [14]): 70%
- % damage (Sinapis [12]; 125 g of ai/ha): 90%

SMILES: Cc1ccc(C)c(C2=C(OC(=O)C(C)C)C3(CCC(OCc4ccccc4)CC3)NC2=O)c1 (stereo not drawn) [Ex. I-1-b-1]
- Kill rate in % after 7d [15]: 100%
